“And” between values parts separate entries of the source, which are not always exact repeats. Identical values can stand only once.
Experiments:
[1] = test system: PBMC from allergic donors; assay: IL-5 ELISPOT with extract-stimulated short-term lines; type: cell-based, human; settings: positive donor/peptide response
Description: (§1) Spots were counted by computer-assisted image analysis (Zeiss, KS-ELISPOT reader, Munich, Germany).
(§2) Each assay was performed in triplicate. The level of statistical significance was determined with a Student's t-test using the mean of triplicate values of the response against relevant pools or individual peptides versus the response against the DMSO control.

[2] = test system: PBMC from allergic donors; assay: Dual ELISPOT, total IL-5 and IFN-γ response (SFC); type: cell-based, human; settings: sum of IFNg and IL-5
Description: as §1, §2

Substance	Response (SFC/10^6) IL-5 ([1]; one donor per table line) [SFC/10^6]	Response (SFC/10^6) Total ([2]; one donor per table line) [SFC/10^6]	Response (SFC/10^6) IL-5 ([1]; each table line is one donor)	Response (SFC/10^6) Total ([2]; each table line is one donor)
3324.1549 (SSSFPQFKSEEITNI)	77	77	–	–
3324.1550 (GVTVKKTNQALIFGI)	93	93	–	–
3324.1552 (HSRNLINELSERMAG)	–	–	118 SFC/10^6 and 190 SFC/10^6 and 57 SFC/10^6	118 SFC/10^6 and 190 SFC/10^6 and 57 SFC/10^6
3324.1558 (NYLALLVKYVTGDGD)	–	–	80 SFC/10^6	80 SFC/10^6
3324.1562 (DKFTVFEAAFNNAIK)	–	–	183 SFC/10^6	183 SFC/10^6
3324.1591 (FIFGEARSLYLNTEL)	–	–	500 SFC/10^6 and 133 SFC/10^6	500 SFC/10^6 and 133 SFC/10^6
3324.1593 (FEAARVVFSYCNLSD)	–	–	363 SFC/10^6	363 SFC/10^6
3324.1594 (SDYFVGANLIVSNSA)	–	–	920 SFC/10^6	920 SFC/10^6
3324.1596 (AAEFGTVDSATLIVE)	–	–	3003 SFC/10^6	3003 SFC/10^6
3324.1599 (EKVKIERLHPYITLY)	–	–	260 SFC/10^6	260 SFC/10^6
3324.1600 (EYIEAAKWLLPPPKV)	–	–	980 SFC/10^6	980 SFC/10^6
3324.1601 (GANLIVSNSAPRPDG)	–	–	147 SFC/10^6	147 SFC/10^6
3324.1602 (RTIFFDAYLGTSYVI)	–	–	433 SFC/10^6	433 SFC/10^6
3324.1603 (DAYLGTSYVIVIKEP)	–	–	290 SFC/10^6	290 SFC/10^6
3324.1606 (KIAAEIAIALLFLRD)	–	–	90 SFC/10^6	90 SFC/10^6
3324.1608 (IAIALLFLRDAKPEP)	–	–	97 SFC/10^6	97 SFC/10^6

Source: patent US10918713B2, “Epitopes from allergen proteins and methods and uses for immune response modulation” (LA JOLLA INSTITUTE FOR ALLERGY AND IMMUNOLOGY, priority 2012, dated 2021)
